“Also recorded” adds a separate entry of the source.
How the values were obtained:
yellow nutsedge (YN) = test: PRE greenhouse, 2,4-DC + sulfentrazone, % control; format: in vivo, Cyperus esculentus; details: 28 DAT, g ai/ha by row: r8-16 2,4-DC 50/100/200 (3 rows each) + sulfentrazone 105/210/315 (cycling)
Procedure: Test compositions containing 2,4-DC Example 1B and sulfentrazone (Spartan® 4F, 39.6% active ingredient, FMC Corp.) and mixtures of 2-(2,4-dichlorophenyl)methyl-4,4-dimethyl-3-isoxazolidinone and sulfentrazone, were diluted with water to provide the appropriate test rate concentration.
The test weeds were Pennsylvania smartweed (PS) (Polygonum pennsylvanicum), Palmer amaranth (PA) (Amaranthus palmeri), velvetleaf (VL) (Abutilon theophrasti), green foxtail (GF) (Setaria viridis), morningglory (MG) (Ipomoea spp.), yellow nutsedge (YN) (Cyperus esculentus), purple nutsedge (PN) (Cyperus rotundus), and benghal dayflower (BD) (Commelina benghalensis). Crops included in the evaluation were corn, wheat, and cowpea.
For pre-emergence testing, four disposable fiber flats (6″ by 10″) for each rate of application of each herbicide solution were filled with top soil, to which seeds of each species were planted in furrows made by a template pressed on the top of the soil. The furrows with crop/weed seeds were covered with soil and were watered well before application of the test compounds. Flats designated for treatment were placed in a spray chamber having a static platform and a movable sprayer and height of the spray nozzle was 10.5 inches above the soil level. Once the sprayer was calibrated using water for spray volume of 30 gallons per acre, flats were sprayed with sprayer at a speed to receive a coverage equivalent of 30 gallons per acre.
The application rates are those shown in Table 3, 3A, an d 3B below for the individual herbicidal solutions and the herbicide compositions of the present invention. The pre-emergence flats were immediately placed in the greenhouse and watered lightly after treatment for herbicide activation. Thereafter they were regularly watered and feterilized for the duration of the test. The control of weeds was evaluated in each experimental test at 28 days after treatment (DAT), 14 DAT for crops. The results, shown as an average of the replications, were compared with results observed in untreated control flats in the same tests. Percent weed control was determined by a method similar to the 0 to 100 rating system disclosed in “Research Methods in Weed Science,” 2nd ed., B. Truelove, Ed.; Southern Weed Science Society; Auburn University, Auburn, Ala., 1977.

Pennsylvania smartweed = test: Ex15 PRE 2,4-DC + S-metolachlor, % control 28 DAT, Colby; format: in vivo, Polygonum pensylvanicum
Description: The weeds tested in this study were redroot pigweed (Amaranthus retroflexus, AMARE), Jimsonweed (Datura stramonium, DATST), black nightshade (Solanum nigrum, SOLNI), large crabgrass (Digitaria sanguinalis, DIGSA), Pennsylvania smartweed (Polygonum pensylvanicum, POLPY), horseweed (Conyza canadensis, ERICA), wild buckwheat (Polygonum convolvulus, POLCO). The crop tested was Corn (var. Viking).
To determine PRE efficacy and corn injury, five rates of each 2,4 DC (36.7% CS) and S-metolachlor (Dual II Magnum®, 82.4%) were applied either alone or as tank-mix. 2,4 DC was applied at 0, 125, 170, 210, or 250 g ai/ha and S-metolachlor was applied at 0, 267, 534, 801, or 1070 g ai/ha. Additional treatments included application of premix of pyroxasulfone plus fluthiacet-methyl (Anthem™ 23.3%) at 169.9 g ai/ha and tank-mix of mesotrione (Callisto®, 40%) at 123 g plus S-metolachlor at 1252 g. Treatments were applied just after the planting of large crabgrass, Jimsonweed, black nightshade, redroot pigweed, Pennsylvania smartweed, horseweed, wild buckwheat, and corn.
Flats were watered and fertilized routinely after treatment application. Each treatment was replicated three times. […] Corn injury was rated for bleaching and stunting.

Wild oat = test: Ex32 PRE 2,4-DC + pyroxasulfone + sulfentrazone, % control 28 DAT, Colby; format: in vivo, Avena fatua
Description: (§1) Treatments were applied at the time of planting to Italian ryegrass, green foxtail, littleseed canarygrass, wild oat, quackgrass, dandelion, common chickweed, white clover, yellow nutsedge, redroot pigweed, field bindweed, canola, and wheat. […] Flats were watered and fertilized routinely after treatment application.

Yellow nutsedge = test: as above; format: in vivo, Cyperus esculentus
Description: as §1

Wild mustard = test: Ex35 PRE 2,4-DC + dimethachlor + napropamide, % control 28 DAT, Colby; format: in vivo, Sinapis arvensis
Description: Crops screened were wheat and canola.

Common cocklebur = test: Ex37 PRE 2,4-DC + atrazine, % control 28 DAT, Colby; format: in vivo, Xanthium strumarium
Description: S-metolachlor (DUAL II MAGNUM®, 82.4%) at 525 g ai/h plus atrazine at 560 g ai/h was included as a standard for comparison. […] Thereafter flats were watered and fertilized routinely.

[1] = test system: weeds; Wheat, barley, and oil seed rape (OSR); test: Ex19 PRE greenhouse; format: in vivo; details: rate in the words
Description: In this study, the crops tested included Wheat, barley, and oil seed rape (OSR).
To determine weed efficacy and wheat, barley or OSR selectivity, 2,4 DC (CS 36.7%) and Diflufenican (CS 19.5%) were applied preemergence either alone or as tank-mix partners at the following rates. 2,4 DC was applied at 125, 170, 210 and 250 g ai/ha while Diflufenican was applied at 50, 75, and 100 g ai/ha. Pyroxasulfone (KIH-485, 85%) at 74.3 g ai/ha, pendimethalin (Prowl 3.3EC, 37.4%) at 1200 g ai/ha, or a premix of chlorsulfuron plus metsulfuron-methyl (Report Extra, 75%) at 15.8 g ai/ha were applied as commercial standards.
Herbicides included as standards for comparison were pyroxasulfone, pendimethalin, and a pre mix of chlorsulfuron plus metsulfuron methyl, all applied at labeled rates as indicated above. Treatments were replicated 3 times. […] Thereafter flats were watered and fertilized routinely.

weeds; Wheat and Barley = test: Ex36 POST greenhouse; format: in vivo; details: rate in the words
Description: Crops screened were wheat and barley.

weeds; barley and wheat = test: Ex40 POST greenhouse; format: in vivo; details: rate in the words
Procedure: Treatments were applied to barley and wheat crops.
Non-ionic surfactant (NIS) was added to all treatments at 0.5% v/v. All plant species were direct seeded into 3″ plastic pots using metro-mix as growth media. At treatment common lambsquarters was 1.75″, common chickweed was 2″, wild mustard was 2.25″, wild oat was 5.5″, wild buckwheat was 2-5″, Italian ryegrass was 2-3″, wheat was 5.5″ and barley was 4.5″ in height. Plants were watered well before application and not watered 24 h after application. Plants were watered and fertilized routinely after treatment application. Each treatment was replicated four times. Treated flats were placed in randomized block design in the greenhouse.

## CC1(C)CON(Cc2ccc(Cl)cc2Cl)C1=O [2,4-DC, 2-(2,4-dichlorophenyl)methyl-4,4-dimethyl-3-isoxazolidinone]
Yellow nutsedge (YN); r17-19 2,4-DC 50/100/200, r20-22 sulfentrazone 105/210/315, 50 g ai/ha
  % Control YN: 10%
Yellow nutsedge (YN); r17-19 2,4-DC 50/100/200, r20-22 sulfentrazone 105/210/315, 100 g ai/ha
  % Control YN: 12%
Yellow nutsedge (YN); r17-19 2,4-DC 50/100/200, r20-22 sulfentrazone 105/210/315, 200 g ai/ha
  % Control YN: 13%
Pennsylvania smartweed; 2,4-DC alone 125 g ai/ha
  X: 38%
Pennsylvania smartweed; 2,4-DC alone 170 g ai/ha
  X: 67%
Pennsylvania smartweed; 2,4-DC alone 210 g ai/ha
  X: 80%
Pennsylvania smartweed; 2,4-DC alone 250 g ai/ha
  X: 78%
Wild oat; 2,4-DC alone 50 g ai/ha
  X: 28%
Wild oat; 2,4-DC alone 100 g ai/ha
  X: 28%
Wild oat; 2,4-DC alone 200 g ai/ha
  X: 67%
Yellow nutsedge; 2,4-DC alone 50 g ai/ha
  X: 0%
Yellow nutsedge; 2,4-DC alone 100 g ai/ha
  X: 0%
Yellow nutsedge; 2,4-DC alone 200 g ai/ha
  X: 17%
Wild mustard; 2,4-DC alone 50 g ai/ha
  X: 12%
Wild mustard; 2,4-DC alone 100 g ai/ha
  X: 37%
Wild mustard; 2,4-DC alone 200 g ai/ha
  X: 47%
Common cocklebur; 2,4-DC alone 50 g ai/ha
  X: 0%
Common cocklebur; 2,4-DC alone 100 g ai/ha
  X: 7%
Common cocklebur; 2,4-DC alone 200 g ai/ha
  X: 60%
[1]
  weed control / crop safety in words: applied at 125 g ai/ha provided suppression (70-84% injury) to corn poppy, higher rates controlled (≥85% injury) corn poppy; also recorded: Wheat, barley, and oilseed rape (OSR) were safe (≤10% injury) with all stand alone treatments
weeds; Wheat and Barley
  weed control / crop safety in words: alone applied to barley was safe at 50 g ai/ha
weeds; barley and wheat
  weed control / crop safety in words: applied alone was safe at all rates on both wheat and barley

Reference: US12616203B2, “Use of 3-isoxazolidinones compounds as selective herbicides” (FMC Corporation, priority 2014, dated 2026)
